# Laboratory results reported in patent US20150087969A1, “SYSTEMS AND METHODS FOR OPTICALLY GUIDED PLACEMENT AND MONITORING OF MEDICAL IMPLANTS” (Children's National Medical Center, priority 2013, published 2015).
# Key:
# [1] = test system: Human Umbilical Vein Endothelial (HUVEC) cells; assay: Endothelial cell adhesion to films; assay type: cell-based; settings: HUVECs seeded on films, one hour, Calcein AM/propidium iodide
# Method: To determine if endothelial cells bind to the catheters, 19 mm films are cut and affixed to the bottom of suspension 12-well culture plates with 50 μL of 10 mg/mL collagen Type I isolated from rat tails. Plates are incubated for 30 minutes to allow for collagen polymerization. Films are seeded with 100 cells/cm^2 and incubated for one hour. Wells are washed with PBS to remove non-adherent cells and stained with Calcein AM and propidium iodide to aid in visualization of cell binding. The number and cell health of adherent cells is analyzed with fluorescence microscopy and compared to positive (collagen plates) and negative (Teflon) controls.
# In order to be a viable biomaterial, cell adhesion should be minimal in order to avoid excess damage when removing or inserting the PICC.
# [2] = Thermal degradation by thermogravimetric analysis (TGA); assay type: physicochemical; settings: TGA in nitrogen gas at 20° C./min (n=3)
# Method: According to an embodiment, aromatic polyether-based medical grade thermoplastic polyurethane (TPU) pellets can be mixed with and without IRDye 800CW to form TPU Composite and Plain TPU using a hydraulic platen press. […] The temperature at which the samples begin to decrease sharply in weight is determined to be their degradation point. According to an embodiment, thermal degradation temperatures are evaluated using a Q50 Thermogravimetric Analyzer (TGA), wherein the analysis is conducted in nitrogen gas at 20° C./min (n=3), where n is the number of times the experiment has been performed.
# Furthermore, the degradation temperatures are considerably higher than the processing temperature of TPU (195° C.).
# [3] = Stability of IRDye 800CW fluorescent signal in PBS at 37° C.; assay type: physicochemical; settings: PBS at 37° C. with gentle agitation, 12 days
# Method: According to another embodiment of the disclosure, in order to determine the long-term effect of being implanted in vivo, catheters are leached in phosphate buffered saline powder (PBS) for 23 days to determine the amount of dye retained within the matrix. TPU Composite tubes are cut into thin slices, weighed, and added to a black 96 well plate containing 200 μl PBS. Leaching of IRDye 800CW from the TPU Composite (n=8) is analyzed under physiological conditions (pH ˜7.4, 37° C., with gentle agitation) in a water bath. The water bath is covered to prevent photo-bleaching. Each day, tubes can be transferred to the successive well containing PBS, and the previous day is analyzed using a micro-plate reader with excitation at 765 nm, emission at 794 nm and a sensitivity of 100. […] Further, to determine the amount of IRDye 800CW retained, a calibration curve containing serial dilutions of IRDye 800CW in PBS is used (0 to 0.00030 wt %) (R^2=0.99). Additionally, 10 mL of IRDye 800CW in PBS is placed in the water bath and 100 μL aliquots are analyzed per day for signs of signal degradation due to heat.
# The retention analysis of IR Dye 800 CW within TPU matrix of FIG. 17 includes a 6.35% of the IR Dye 800 CW being released from the polymer over 23 days. […]
# [4] = test system: Human Umbilical Vein Endothelial (HUVEC) cells; assay: Biocompatibility (toxicity) in direct contact with endothelial cells, alamar blue and Calcein AM/propidium iodide; assay type: cell-based
# Method: According to another embodiment of disclosure, biocompatibility studies are conducted to determine the toxicity of TPU Composite in direct contact with endothelial cells as well as the adhesion of endothelial cells to the TPU Composite. Pressed films (Plain TPU and TPU Composite) are sterilized by washing in 1×PBS for 24 hours under constant agitation, followed by a 30 minute soak in 100% ethanol and two 1 hour rinses with PBS. Biocompatibility studies include 12 well cell bind plates being seeded with Human Umbilical Vein Endothelial (HUVEC) cells (passage 4-10, cultured in complete endothelial growth medium EGM Bulletkit, LONZA) at a density of 100 cells/cm^2 for 12 hours to allow for adhesion [37° C., 5% CO2]. Films (19 mm) are placed in direct contact to the cells and incubated for an additional 72 hours, replacing media daily. Toxicity is quantitatively analyzed with alamar blue according to manufacturer's protocol. Briefly, 100 μL of alamar blue is added to the media and allowed to incubate for 1.5 hours. Fluorescence of each alamar blue was read at excitation 545 nm, emission 590 nm. Films are removed from wells and cells are stained with Calcein AM and propidium iodide according to manufacturer's protocol, fixed with 4% paraformaldehyde for 1 hour and rinsed three times with PBS for qualitative analysis of cell death. Cells are imaged with fluorescent confocal imaging (Zeiss) for proliferation, morphology changes and viability. The process is repeated with 0.025 wt % IRDye 800CW in media, cells with media as a positive control, and cells with 70% ethanol in media as a negative control.
Compound,"cell adherence (qualitative, cell shape) [1]",thermal degradation temperature [2] [°C],fluorescent signal stability in PBS [3],"Normalized Viability ([4]; 0.025 wt % in media, HUVECs, 72 hours, alamar blue, normalized to media control)","cell viability (statistics) ([4]; 72 hour incubation of HUVECs, IRDye 800CW at 0.025 wt %)","cell morphology or proliferation rates ([4]; Calcein AM and Propidium Iodide staining, HUVECs)"
"Collagen I: collagen Type I isolated from rat tails, positive control for cell adhesion",preferentially adhered,–,–,–,–,–
CC1(C)C(=CC=C2CCCC(C=CC3=[N+](CCCCCC(=O)[O-])c4ccc(S(=O)(=O)[O-])cc4C3(C)C)=C2Oc2ccc(S(=O)(=O)[O-])cc2)N(CCCCS(=O)(=O)[O-])c2ccc(S(=O)(=O)[O-])cc21.[Na+].[Na+].[Na+].[Na+] [IRDye 800CW],–,308±10,no observed decrease in the fluorescent signal,91.27 ± 8.54,no statistical difference,no apparent change
